Laboratory results as given in patent US20240279190A1, “COMPOUNDS FOR MODULATING PLATELET-TYPE 12-(S)-LIPOXYGENASE AND METHODS OF USE FOR SAME” (The Regents of The University of California, priority 2021, published 2024).

What was measured:
[1] = molecular target: T1, 12-LOX mutant F352L (Homo sapiens, UniProt P18054, F352L); assay: UV-Vis-based IC50 assay, F352L mutant; format: biochemical
T1 construct: 6xHis (N); made in house; pFastBac1 shuttle vector
T1 sequence (P18054 1-663 F352L): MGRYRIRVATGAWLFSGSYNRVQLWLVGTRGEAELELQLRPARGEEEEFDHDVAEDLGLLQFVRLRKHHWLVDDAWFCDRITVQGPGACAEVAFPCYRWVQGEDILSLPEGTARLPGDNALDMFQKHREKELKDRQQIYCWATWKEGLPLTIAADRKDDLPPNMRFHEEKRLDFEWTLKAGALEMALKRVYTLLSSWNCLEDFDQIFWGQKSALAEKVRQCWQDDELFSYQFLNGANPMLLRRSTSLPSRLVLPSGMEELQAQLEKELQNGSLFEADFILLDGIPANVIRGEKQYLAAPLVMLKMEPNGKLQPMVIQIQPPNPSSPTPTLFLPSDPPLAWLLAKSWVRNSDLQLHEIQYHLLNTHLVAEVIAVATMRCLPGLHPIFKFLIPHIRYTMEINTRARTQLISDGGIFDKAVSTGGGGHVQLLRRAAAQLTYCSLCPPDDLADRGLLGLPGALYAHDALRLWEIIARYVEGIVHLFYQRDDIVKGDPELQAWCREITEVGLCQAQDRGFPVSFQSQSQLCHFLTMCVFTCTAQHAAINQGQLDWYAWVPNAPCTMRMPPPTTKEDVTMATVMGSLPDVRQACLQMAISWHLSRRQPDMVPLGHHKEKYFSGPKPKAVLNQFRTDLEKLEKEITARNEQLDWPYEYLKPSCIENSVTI
Description: Based on the ML355 binding mode predicted by the modeling, all residues within 5 Å of any atom of ML355 were selected for experimental mutagenesis. The selected residues were replaced with amino acids with either bulkier or smaller side chains in order to determine what specific interactions play a role in inhibitor binding. […] The numbering refers to the UniProt accession number P18054 sequence, with the N-terminal methionine assigned as amino acid number one. The primers for all mutants were designed using the online QuikChange Primer Design tool (http://www.genomics.agilent.com/primerDesignProgram.jsp) from Agilent Technologies (CA, USA). The mutations were introduced by using the QuikChange® II XL site-directed mutagenesis kit from Agilent, following the instructions in the protocol provided. […]
The wild type 12-LOX (wt-12-LOX) enzyme and its mutants were expressed as fusion proteins, with an N-terminal 6×His tag, and were affinity purified by nickel-iminodiacetic acid agarose using FPLC (Biorad).
The percent inhibition was determined by comparing the enzyme rates of the control (DMSO solvent) and the inhibitor sample by following the formation of the conjugated diene product at 234 nm (ε=25,000 M^−1cm^−1). […] The substrate concentration was quantitatively determined by allowing the enzymatic reaction to go to completion in the presence of soybean LOX-1. […]

[2] = system: other LOX isozymes (h5-LOX, h15-LOX-1, h15-LOX-2); assay: Inhibitor selectivity against other LOX isozymes; format: biochemical, human
Description: The wild type 12-LOX (wt-12-LOX) enzyme and its mutants were expressed as fusion proteins, with an N-terminal 6×His tag, and were affinity purified by nickel-iminodiacetic acid agarose using FPLC (Biorad). For inhibitor selectivity, human 5-LOX (h5-LOX, UniProt entry P09917), human reticulocyte 15-LOX-1 (h15-LOX-1, UniProt entry P16050) and human epithelial 15-LOX-2 (h15-LOX-2, UniProt entry 015296) were also isolated. The purity of all the proteins, except h5-LOX, was greater than 90% as determined by SDS-PAGE analysis. h5-LOX was an ammonium sulfate fraction due to the extensive loss of activity upon purification.
IC50 values of ML355 against 12-LOX and its mutants were determined in a similar manner as the steady state kinetic values. The percent inhibition was determined by comparing the enzyme rates of the control (DMSO solvent) and the inhibitor sample by following the formation of the conjugated diene product at 234 nm (ε=25,000 M^−1cm^−1). The reactions were initiated by adding 200 nM 15-LOX-2, 30 nM 12-LOX, 40 nM 15-LOX-1, or approximately 100-300 nM (total protein) of 5-LOX ammonium sulfate fraction to a cuvette with 2 mL reaction buffer, constantly stirred using a magnetic stir bar at room temperature (22° C.). […] The substrate concentration was quantitatively determined by allowing the enzymatic reaction to go to completion in the presence of soybean LOX-1. […]

SMILES: COc1cccc(CNc2ccc(S(=O)(=O)Nc3nc4c(ccc5ccccc54)s3)cc2)c1O [Compound LOX-12-001, 4-((2-hydroxy-3-methoxybenzyl)amino)-N-(naphtho[1,2-d]thiazol-2-yl)benzenesulfonamide]
- IC50 ([1]; F352L): 490 ± 50 nM
- fold increase in IC50 compared to wt12-LOX ([1]; F352L vs wt12-LOX): 9.8 fold
- selectivity against other LOX isozymes [2]: maintained
